The NIST ThermoML archive (doi:10.1016/j.jct.2007.01.008)
Several values for one entry are separate records, joined by “and”; a condition that tells them apart may be missing. Equal values may be shown once.

Details: for surface tension liquid-gas: Ring tensiometer; for viscosity / mass density: 101.33 kPa, Liquid; for viscosity: Capillary tube (Ostwald / Ubbelohde) method; for mass density: Vibrating tube method

CCC(=O)CC [pentan-3-one]
Details | mass density | surface tension liquid-gas [mN/m] | viscosity [mPa·s]
283.15 K | 824.27 kg/m3 | 26.5 | 0.515
285.15 K | 822.28 kg/m3 | 26.3 | 0.507
287.15 K | 820.3 kg/m3 | 26.1 | 0.499
289.15 K | 818.31 kg/m3 | 26 | 0.492
291.15 K | 816.33 kg/m3 | 25.8 | 0.484
292.15 K | – | – | 0.48
293.15 K | 814.34 kg/m3 | 25.6 | 0.476
295.15 K | 812.36 kg/m3 | 25.4 | 0.468
297.15 K | 810.37 kg/m3 | 25.2 | 0.46
298.15 K | 809.25 kg/m3 and 810.86 kg/m3 | – | 0.458
299.15 K | 808.39 kg/m3 | 25 | 0.453
301.15 K | 806.4 kg/m3 | 24.8 | 0.445
303.15 K | 804.42 kg/m3 | 24.6 | 0.437
305.15 K | 802.43 kg/m3 | 24.4 | 0.429
307.15 K | 800.45 kg/m3 | 24.2 | 0.421
309.15 K | 798.46 kg/m3 | 24 | 0.414
311.15 K | 796.48 kg/m3 | 23.8 | 0.406
313.15 K | 794.49 kg/m3 | 23.6 | 0.398
315.15 K | 792.51 kg/m3 | 23.4 | 0.39
317.15 K | 790.52 kg/m3 | 23.3 | 0.382
319.15 K | 788.54 kg/m3 | 23.1 | 0.375
321.15 K | 786.55 kg/m3 | 22.9 | 0.367
323.15 K | 784.57 kg/m3 | 22.7 | 0.359
325.15 K | 782.59 kg/m3 | 22.5 | 0.351
327.15 K | 780.6 kg/m3 | 22.3 | 0.343
329.15 K | 778.62 kg/m3 | 22.1 | 0.336
